Measurements published in patent US20260174858A1, “TARGETING THE m6A MRNA DEMETHYLASE FTO” (University of Virginia Patent Foundation, priority 2022, published 2026).

Assays:
[1] = system: Wild type BMDMs; assay: LPS-induced IL-6 release on BMDMs (ELISA); type: cell-based, mouse; conditions: FB23-2 20 uM pre-treatment 1 hour, then 250 ng/ml LPS 6 hours, p<0.0001
Experimental: (§1) Primary WT or mutant mouse bone marrow derived macrophages (BMDMs) were isolated as previously described (4). BMDMs were cultured in IMDM (Gibco) basal medium containing 10% fetal bovine serum (FBS), 30% L929 supernatants, nonessential amino acids, sodium pyruvate, 2-mercaptoethanol, and antibiotics. THP-1 cells were cultured in RPMI 1640 medium with 10% FBS and antibiotics. Human RPE cells were isolated as previously described and cultured in DMEM medium with 10% FBS and antibiotics. All cells were maintained at 37° C. in a 5% CO2 environment.
(§2) Secreted IL-6 in the BMDMs medium or serum IL-6, TNF-alpha, and IL-1alpha were detected by ELISA (Mouse IL-1 alpha/IL-1F1 DuoSet, R&D Systems, DY400; Mouse IL-6 DuoSet, R&D Systems, DY406; Mouse TNF-alpha DuoSet, R&D Systems, DY410) according to the manufacturer's instructions.

[2] = system: Wild type C57BL/6J mice; assay: Serum cytokines release in the LPS model of sepsis (ELISA); type: in vivo, mouse; conditions: FTOi 20 mg/kg i.p., 10 mg/kg LPS, serum at 10 hours after LPS
Experimental: as §2
To induced septic shock model, male or female C57BL/6 mice (6 to 10 weeks old) were primed with 10 mg/kg poly(I:C) via intraperitoneal injection. 6 hours later, primed mice were injected with 10 mg/kg LPS and monitored three time daily for a total 5 days. For FTO inhibitor treatment, Wild type C57BL/6J mice were pretreated with 20 mg/kg FB23-2 for 16 hours before sepsis induction. Next day, 20 mg/kg FB23-2 together with 10 mg/kg poly(I:C) were intraperitoneally injected, following with LPS challenge at 6 hours after poly(I:C) priming.

[3] = system: Wild type C57BL/6J mice; assay: VEGFA ELISA of RPE-choroid after laser injury; type: in vivo, mouse; conditions: FTOi i.p. plus 25 ng intravitreous, day 3 after laser injury
Experimental: Laser photocoagulation (532 nm, 180 mW, 100 ms, 75 μm) (OcuLight GL; IRIDEX Corp., Mountain View, CA, USA) was performed bilaterally (volume studies: 4 spots per eye; RNA analyses: 10 spots per eye) in 6- to 8-week-old mice on day 0 to induce CNV as previously described 1-3. For drug treatment, the mice pretreated with FTO inhibitor (FB23-2, SML2694, Sigma) or vehicle (DMSO) through intraperitoneal injection (i.p, 2 mg/kg). Then, the mice were subjected to laser photocoagulation followed by intravitreous injection of the FTO inhibitor (25 ng/0.5 μl per eye) or vehicle. At day 3 after laser injury, the mice were administered the FTO inhibitor (2 mg/kg) or vehicle via intraperitoneal injection. At day 7, the eyes were collected for fluorescein labeled-isolectin B4 and F4/80 staining and for neovascular volume quantification.
The RPE-choroid complex was isolated from mouse eyes on day 3 after laser injury and treatment with FTO inhibitor or vehicle. […] The lysate was centrifuged at 20,000×g for 15 minutes at 4° C., and total protein in the lysates was quantified using the Thermo Scientific™ Pierce™ BCA™ Protein Assay (Fisher Scientific, PI23225, USA). VEGFA protein levels in the supernatants were measured by VEGF DuoSet ELISA (R&D Systems, DY493, USA), following the manufacturer's instructions. […]

[4] = system: Human THP-1 cells; assay: VEGFA release in human THP-1 cells (ELISA); type: cell-based; conditions: indicated dosage of FTOi, 24 hours or 48 hours; supernatant ELISA
Experimental: as §1
The RPE-choroid complex was isolated from mouse eyes on day 3 after laser injury and treatment with FTO inhibitor or vehicle. Eye tissues were lysed by sonication with immunoprecipitation assay (RIPA) buffer (Sigma-Aldrich, R0278, USA) containing protease inhibitor (Sigma-Aldrich, 11836170001, USA), on ice for 15 minutes. The lysate was centrifuged at 20,000×g for 15 minutes at 4° C., and total protein in the lysates was quantified using the Thermo Scientific™ Pierce™ BCA™ Protein Assay (Fisher Scientific, PI23225, USA). VEGFA protein levels in the supernatants were measured by VEGF DuoSet ELISA (R&D Systems, DY493, USA), following the manufacturer's instructions. […] VEGFA levels in the supernatants were measured by mouse or human VEGF DuoSet ELISA (R&D Systems, DY493 or DY293B, USA), following the manufacturer's instructions.

[5] = system: Human RPE cell line, ARPE-19; assay: TGF-β1-induced fibrotic response in ARPE-19 (immunoblotting, immunofluorescence); type: cell-based; conditions: FTOi pretreatment at indicated concentrations, TGF-β1 10 ng/ml 12 hours
Experimental: Cells and tissues were homogenized in RIPA buffer (R0278, Sigma) with protease and phosphatase inhibitors (A32959, Thermo Scientific). Protein concentration was determined with a Pierce BCA Protein Assay Kit (23225, Thermo Scientific). Equal quantities of protein boiled in LDS Sample Buffer (NP0007, Thermo Scientific) were resolved by Novex Tris-glycine gels (Invitrogen) and transferred onto LF PVDF membranes (1704274, Bio-Rad). The transferred membranes were blocked with Blocking Buffer (927-40000, LI-COR) and incubated with the following primary antibodies: anti-FTO pAb (AdipoGen Life Sciences, AG-25A-0089-C100, USA), anti-GAPDH mAb (Cell Signaling Technology, 97166), anti-F4/80 (Santa Cruz Biotechnology, sc-25830). The signal was visualized with species-specific secondary antibodies conjugated with IRDye and Odyssey® CLx Imaging System.

`Cc1noc(C)c1-c1cc(Cl)c(Nc2ccccc2C(=O)NO)c(Cl)c1` [FB23-2] was tested, and the “LPS-induced IL-6 release” value [1] was “reduces LPS-induced IL-6 release”, the “Serum cytokines release (IL-6, TNF-α, IL-1α)” value [2] was “impairs serum cytokines release” and the “VEGFA protein levels in laser treated RPE-choroid tissue” value [3] was “inhibits VEGFA release in vivo”. The “VEGFA protein levels in laser treated RPE-choroid tissue” value ([3]; listed as selective inhibitor) was “suppressed VEGFA protein levels”, the VEGFA release [4] was “inhibits VEGFA release” and the “Fibrotic response (αSMA, fibronectin)” value [5] was “suppress the fibrotic response”.
